# Several values for one entry are separate records, joined by “and”; a condition that tells them apart may be missing. Identical values can stand only once. Entries after “also recorded” stand apart in the source; their conditions may differ. Like-named read-outs stand apart in the source and are kept apart here.
# What was measured:
# [1] = biological target: T1, recombinant human MMP-14 catalytic domain (Homo sapiens, UniProt P50281); experiment: Initial rate fluorescence assay, MMP-14 catalytic domain, substrate Mca-PLGLDpaAR-NH2 (Km, Ki); format: biochemical
# T1 construct: recombinant MMP-14 (catalytic domain) were from Calbiochem; purchased Calbiochem (San Diego, CA, USA)
# Method: (§1) To determine the kinetic and inhibitor kinetic coefficients Km, and Ki, initial rate experiments were performed using a Perkin Elmer LS 50 Luminescence spectrometer and the FL WinLab Software Package (Perkin Elmer). The reactions were followed for one minute and during that time 600 data points were collected. The excitation and emission wavelengths for the two fluorescence quenched MMP peptide substrates, McaPLGLDpaAR-NH2 and Mca-[…](Dpn)-OH were; λex = 320 nm, λem = 405 nm and a slit width = 10 nm at both wavelengths. All assays were performed at 37°C in an assay buffer of 0.1 M Hepes pH 7.5, 0.005% Brij-35, 10 mM CaCl2 and a total assay volume of 100 μl.
# (§2) The Km value was calculated from non-linear regression of the Michaelis-Menten equation using the Enzyme kinetic module in GraphPad Prism 5.
# (§3) A fixed substrate concentration of 5.0 μM and / or 10 μM and a fixed enzyme concentration along with varying concentrations of potential inhibitor were used to determine the inhibitory capacity of the two compounds. […] For a competitive inhibitor, the IC50 value equals Ki(1+[S]/Km). For tight binding competitive inhibitors (Ki ≤ [E]), the values of Ki and [E] were obtained by both a dose response plot (vi/v0 against [I]) using the Morrison equation [71] (2) and through the linear Henderson Plot (Eq 3). For tight binding inhibitors, the enzyme was pre-incubated for 15 min at 37°C in the presence of inhibitor and the reaction was started by the addition of substrate. Graph Pad Prism 5 was used to calculate Ki and [E] values.
# [2] = system: MMP-14 (catalytic domain); settings: cited from earlier work
# MMP-9 = settings: cited from earlier work
# auerolysin = biological target: T2, auerolysin (Staphylococcus aureus, UniProt P81177); experiment: Initial rate fluorescence assay, auerolysin, substrate Mca-[…](Dnp)-OH (Km, Ki); format: biochemical
# T2 construct: purchased BioCentrum Ltd (Kraków, Poland)
# T2 sequence (P81177 209-509): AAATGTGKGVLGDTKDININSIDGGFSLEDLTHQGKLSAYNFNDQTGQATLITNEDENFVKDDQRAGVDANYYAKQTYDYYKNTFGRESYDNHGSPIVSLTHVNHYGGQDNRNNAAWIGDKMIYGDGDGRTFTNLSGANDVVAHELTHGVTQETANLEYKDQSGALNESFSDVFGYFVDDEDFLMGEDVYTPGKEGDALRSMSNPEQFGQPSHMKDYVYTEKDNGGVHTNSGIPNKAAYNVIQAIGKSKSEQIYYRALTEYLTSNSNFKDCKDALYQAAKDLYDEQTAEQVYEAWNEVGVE
# Method: as §1, §2, §3
# pseudolysin [3] = biological target: T3, pseudolysin (Pseudomonas aeruginosa, UniProt P14756); design: purchased Calbiochem (San Diego, CA, USA); settings: ref Grobelny D et al. [58]; cited from earlier work
# T3 sequence (P14756 198-498): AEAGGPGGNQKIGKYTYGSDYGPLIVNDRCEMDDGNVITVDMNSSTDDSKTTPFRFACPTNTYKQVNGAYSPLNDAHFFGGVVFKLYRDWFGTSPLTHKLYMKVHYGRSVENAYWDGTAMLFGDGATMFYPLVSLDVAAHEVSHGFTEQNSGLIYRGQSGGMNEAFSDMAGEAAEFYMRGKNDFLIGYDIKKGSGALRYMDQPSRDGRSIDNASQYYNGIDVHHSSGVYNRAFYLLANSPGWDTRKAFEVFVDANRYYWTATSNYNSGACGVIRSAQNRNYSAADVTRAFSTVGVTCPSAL
# thermolysin [4] = biological target: T4, thermolysin (Bacillus thermoproteolyticus, UniProt P00800); design: purchased Calbiochem (San Diego, CA, USA); method as in Grobelny D et al. [58]; settings: ref Grobelny D et al. [58]; cited from earlier work
# T4 sequence (P00800 233-548): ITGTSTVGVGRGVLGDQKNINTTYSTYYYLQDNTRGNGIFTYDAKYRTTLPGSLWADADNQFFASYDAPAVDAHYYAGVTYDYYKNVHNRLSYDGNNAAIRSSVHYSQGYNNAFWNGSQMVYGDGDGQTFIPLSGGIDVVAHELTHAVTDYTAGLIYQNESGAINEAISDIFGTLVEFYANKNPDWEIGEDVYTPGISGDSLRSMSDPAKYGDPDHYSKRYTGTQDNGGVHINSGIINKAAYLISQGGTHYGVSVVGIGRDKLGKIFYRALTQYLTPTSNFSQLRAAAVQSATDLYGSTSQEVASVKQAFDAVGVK
# pseudolysin [5] = biological target: T3, pseudolysin; experiment: Initial rate fluorescence assay, pseudolysin, substrate Mca-RPPGFSAFK(Dnp)-OH (Km, inhibition); settings: N.I. = no inhibition up to 100 μM of inhibitor
# Method: as §1, §2
# (§4) A fixed substrate concentration of 5.0 μM and / or 10 μM and a fixed enzyme concentration along with varying concentrations of potential inhibitor were used to determine the inhibitory capacity of the two compounds. […] For a competitive inhibitor, the IC50 value equals Ki(1+[S]/Km). For tight binding competitive inhibitors (Ki ≤ [E]), the values of Ki and [E] were obtained by both a dose response plot (vi/v0 against [I]) using the Morrison equation [71] […]
# (§5) The IC50 values were determined from a dose response plot vi/v0 vs log [Inhibitor] as described previously.
# thermolysin [6] = biological target: T4, thermolysin; experiment: Initial rate fluorescence assay, thermolysin, substrate Mca-RPPGFSAFK(Dnp)-OH (Km, inhibition); settings: N.I. = no inhibition up to 100 μM of inhibitor
# Method: as §1, §2, §4, §5
# [7] = biological target: four forms of activated MMP-9 (Homo sapiens, UniProt P14780); experiment: Ki across the four forms of activated MMP-9 (summary); format: biochemical; settings: ratio of Ki values, compound 1b vs galardin
# Sequence of four forms of activated MMP-9 (P14780 107-508 limits assumed): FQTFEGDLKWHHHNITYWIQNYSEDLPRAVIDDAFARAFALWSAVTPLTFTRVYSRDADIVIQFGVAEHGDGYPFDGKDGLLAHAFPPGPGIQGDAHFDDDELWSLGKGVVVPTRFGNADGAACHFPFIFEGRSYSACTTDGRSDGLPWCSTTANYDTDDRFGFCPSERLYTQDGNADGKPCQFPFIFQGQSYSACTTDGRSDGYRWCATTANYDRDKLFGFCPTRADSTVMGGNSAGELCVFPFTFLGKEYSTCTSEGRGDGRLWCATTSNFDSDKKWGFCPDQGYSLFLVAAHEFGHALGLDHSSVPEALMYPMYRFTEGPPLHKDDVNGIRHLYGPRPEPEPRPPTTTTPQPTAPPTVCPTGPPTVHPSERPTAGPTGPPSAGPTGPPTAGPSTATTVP
# Method: as §1, §3
# [8] = system: COc1ccc2c(CC(=O)N[C@@H](CCCNC(=N)N)C(=O)N3CCC[C@H]3C(=O)N3CCC[C@H]3C(=O)NCC(=O)N[C@@H](Cc3ccccc3)C(=O)N[C@@H](CO)C(=O)N[C@@H](C)C(=O)N[C@@H](Cc3ccccc3)C(=O)N[C@@H](CCCCNc3ccc([N+](=O)[O-])cc3[N+](=O)[O-])C(=O)O)cc(=O)oc2c1; experiment: Initial rate fluorescence assay, auerolysin, substrate Mca-[…](Dnp)-OH (Km, Ki); format: biochemical, staphylococcus aureus; settings: other: low precision; Km far above highest usable substrate concentration (10 μM); pH 7.5; 37.0 °C
# Method: as §1, §2, §3
# [9] = system: COc1ccc2c(CC(=O)N[C@@H](CCCNC(=N)N)C(=O)N3CCC[C@H]3C(=O)N3CCC[C@H]3C(=O)NCC(=O)N[C@@H](Cc3ccccc3)C(=O)N[C@@H](CO)C(=O)N[C@@H](C)C(=O)N[C@@H](Cc3ccccc3)C(=O)N[C@@H](CCCCNc3ccc([N+](=O)[O-])cc3[N+](=O)[O-])C(=O)O)cc(=O)oc2c1; experiment: purified protein, by the assay type; settings: pH 7.5, 37.0 °C
molecule,measurement,setting,value
CNC(=O)[C@H](Cc1c[nH]c2ccccc12)NC(=O)[C@@H](CC(=O)NO)CC(C)C [Galardin],Ki,"[1]; Ki ± s.d. per experiment, [S] 5.0 μM, read-out: Ki, Morrison equation, individual experiment",0.95 nM and 0.78 nM and 0.82 nM and 0.91 nM and 0.89 nM
same,Ki,"[1]; Ki ± s.d. per experiment, [S] 5.0 or 10.0 μM, read-out: Ki, Henderson plot, individual experiment",0.78 nM (2×) and 0.86 nM and 0.76 nM and 1.16 nM
same,Ki,"[1]; average ± S.E.M. of independent experiments, 37°C, pH 7.5, read-out: Ki, Henderson plot, average",0.87 ± 0.07 nM
same,Ki,"[1]; average ± S.E.M. of independent experiments, read-out: Ki, Morrison equation, average",0.87 nM
same,IC50,[2],13.4 nM
same,IC50,auerolysin,500 ± 40 nM
same,Ki,"auerolysin; Ki app from the slope of the Henderson plot, 3.6 nM enzyme, r2 = 0.84, N = 16",500 ± 60 nM
same,Ki,"auerolysin; Ki from Henderson plot, from Ki app, 3.6 nM enzyme",450 ± 50 nM
same,Ki,"auerolysin; Ki from IC50 (dose response plot, Eq (1))",450 nM
same,Ki,"auerolysin; Ki, from dose response plot using Eq (1), one experiment",452 ± 35 nM
same,"binding to auerolysin, times weaker than binding to thermolysin and pseudolysin",auerolysin; ratio of Ki values,about 25 times
same,Ki,pseudolysin [3],20 nM
same,Ki,thermolysin [4],20 nM
O=C(NO)[C@H]1[C@@H](O)[C@H](O)[C@H](O)CN1S(=O)(=O)c1ccc(Oc2ccccc2)cc1 [compound 1b],Inhibitory effect (Ki: N.I.),pseudolysin [5],no inhibitory effect and N.I.
same,Ki,"[1]; Ki, Henderson plot, average, average ± S.E.M. of independent experiments, 37°C, pH 7.5",0.088 nM and 0.09 nM
same,Ki,"[1]; Ki, Henderson plot, individual experiment, Ki ± s.d. per experiment, [S] 5.0 or 10.0 μM",0.074 nM and 0.128 nM and 0.081 nM and 0.07 nM and 0.08 nM
same,Ki,"[1]; Ki, Morrison equation, average, average ± S.E.M. of independent experiments",0.16 ± 0.02 nM
same,Ki,"[1]; Ki, Morrison equation, individual experiment, Ki ± s.d. per experiment, [S] 5.0 μM",0.16 nM (2×) and 0.21 nM
same,"interaction with MMP-14, times stronger than galardin","[1]; ratio of Ki values, compound 1b vs galardin",10 times
same,Ki,"[1]; read-out: Ki, Morrison equation, individual experiment",0.1 ± 0.06 nM
same,Inhibitory effect (Ki: N.I.),thermolysin [6],no inhibitory effect and N.I.
same,"interaction with MMP-9, times stronger than galardin",[7],5 to 10 times
same,Ki,MMP-9,0.097 nM
same,Inhibitory effect (Ki: N.I.),auerolysin; N.I. = no inhibition up to 100 μM of inhibitor,no inhibitory effect; also recorded: N.I.^c
auerolysin (Staphylococcus aureus),Km,[8],47 ± 41 µM
pseudolysin (Pseudomonas aeruginosa PAO1),Km,"[9]; other: low precision, Km far above highest usable substrate concentration (10 μM)",24 ± 8 µM
thermolysin (Bacillus thermoproteolyticus),Km,[9]; other: substrate 0.5 to 10.0 μM,6 ± 1 µM
